Test results published in patent US12152017B2, “Ketoamide compound and preparation method, pharmaceutical composition, and use thereof” (Shanghai Institute of Materia Medica, Chinese Academy of …, priority 2018, dated 2024).
“And” between values parts separate entries of the source, which are not always exact repeats. Equal values may be shown once. Read-outs that look alike come from different tables or passages of the source.

What was measured:
VSV-G pseudovirus = format: cell-based
in vitro = settings: human
[1] = Pharmacokinetic study in CD-1 mice (gavage, intravenous, intraperitoneal); format: in vivo; settings: for bioavailability: read-out: F (bioavailability)
Method: Nine CD-1 mice, male, weighing 18-22 g, were randomly divided into 3 groups with 3 mice in each group. The test compounds were administered by gavage, intravenously and intraperitoneally according to the following schemes.
Before the test, they were fasted for 12 hours and were allowed to drink water freely, and were fed uniformly 2 h after administration.
There were 3 animals at each time point.
The solution for gavage administration was formulated with DMSO/0.5% HPMC (5/95, v/v) into the final concentration. Intravenous and intraperitoneal administration were formulated with DMSO/PEG300/EtOH/NaCl (5/40/5/50, v/v/v). Retention samples of the dosing solution (50 μL of the drug solution was taken and mixed well with 50 μL of DMSO before and after the administration) for testing.
The drug was administered according to the above dosage, the time of administration were recorded, and 20 μL of blood was collected from the mouse femoral plexus at the above set time point and placed in a heparinized test tube and centrifuged immediately at 11000 rpm for 5 min. 10 μL of plasma was immediately and accurately drawn into a centrifuge tube pre-filled with 100 μL of PK-IS solution (prepared with methanol:acetonitrile (1:1, v/v)), mixed well, and frozen to store at −20° C. for testing.

HCoV-229E pseudovirus = assay: microbe, parasite or virus in culture; format: cell-based; settings: Human coronavirus 229E, read-out: viral inhibitory effect, HCoV-229E pseudovirus
SARS-CoV pseudovirus = assay: microbe, parasite or virus in culture; format: cell-based; settings: Severe acute respiratory syndrome coronavirus; 100 nM; read-out: viral inhibitory effect, SARS-CoV pseudovirus
MERS-CoV pseudovirus = assay: microbe, parasite or virus in culture; format: cell-based; settings: Middle East respiratory syndrome-related coronavirus, Huh-7; 100 nM; read-out: viral inhibitory effect, MERS-CoV pseudovirus
[2] = In vivo safety: body weight of mice during 7 days of intraperitoneal administration; set-up: species or system Balb/c mice; settings: 100 mg/kg i.p. once a day for 7 consecutive days
Method: Next, we further evaluated the safety of compound A13 in mice. The mice in the drug group (100 mg/kg) and the DMSO control group were administered intraperitoneally, once a day, for 7 consecutive days, and then the growth status and weight changes of the mice in each group were observed.

[3] = i.p. (20 mg/Kg per Table 3), Mean of 3 mice
[4] = i.p. (20 mg/Kg per Table 3), individual animal, 20 mg/kg
[5] = i.v. 10 mg/Kg, individual animal, 10 mg/kg
[6] = male, CD-1, mouse, plasma, ip, 20 mg/kg, i.p. (20 mg/Kg per Table 3), individual animal
[7] = p.o. (gavage 20 mg/Kg per Table 3), Mean of 3 mice
[8] = p.o. (gavage 20 mg/Kg per Table 3), individual animal, 20 mg/kg

With O=C(NCc1ccccc1)C(=O)[C@H](C[C@@H]1CCCNC1=O)NC(=O)[C@H](CC1CCCCC1)NC(=O)c1cc2ccccc2o1 [Example A13] the “inhibitory effect on VSV-G-mediated pseudovirus infection” value (VSV-G pseudovirus) was “did not show an effective inhibitory effect”, the CC50 (in vitro) was > 100000 nM and the “AUC INF_obs” value [1, 3] was 7635 ng·h/mL. For the same compound, the “AUC last (exposure for intraperitoneal injection)” value [1, 3] was 7298 ng·h/mL, the C max [1, 3] was 3270 ng/mL and the “MRT INF_obs” value [1, 3] was 5.34 h. The T1/2 [1, 3] was 5.77 h, the “AUC INF_obs” value [1, 4] was 7708 ng·h/mL and 8196 ng·h/mL and the AUC last [1, 4] was 7304 ng·h/mL and 8077 ng·h/mL. For the same compound, the C max [1, 4] was 3583 ng/mL and 3372 ng/mL, the “MRT INF_obs” value [1, 4] was 6.69 h and 6.05 h and 3.28 h and the T1/2 [1, 4] was 5.90 h and 4.94 h. For the same compound, the T max [1, 4] was 0.250 h and 0.050 h, the “AUC INF_obs” value ([1]; i.v. 10 mg/Kg, Mean of 3 mice) was 2976 ng·h/mL and the AUC last ([1]; i.v. 10 mg/Kg, Mean of 3 mice) was 2896 ng·h/mL. The Cl_obs ([1]; i.v. 10 mg/Kg, Mean of 3 mice) was 62.5 mL/min/kg, the “MRT INF_obs” value ([1]; i.v. 10 mg/Kg, Mean of 3 mice) was 1.88 h and the T1/2 ([1]; i.v. 10 mg/Kg, Mean of 3 mice) was 3.34 h. The VSS_obs ([1]; i.v. 10 mg/Kg, Mean of 3 mice) was 6.419 L/kg, the “AUC INF_obs” value [1, 5] was 3411 ng·h/mL and 1773 ng·h/mL and 3745 ng·h/mL and the AUC last [1, 5] was 3300 ng·h/mL and 1734 ng·h/mL and 3652 ng·h/mL. For the same compound, the Cl_obs [1, 5] was 48.9 mL/min/kg and 94.0 mL/min/kg and 44.5 mL/min/kg, the “MRT INF_obs” value [1, 5] was 3.11 h and 1.13 h and 1.40 h and the T1/2 [1, 5] was 6.09 h and 2.07 h and 1.87 h. The VSS_obs [1, 5] was 9.132 L/kg and 6.389 L/kg and 3.736 L/kg, the bioavailability ([1]; male, CD-1, mouse, plasma, intraperitoneal, i.p. 20 mg/Kg vs i.v. 10 mg/Kg) was 126% and the Tmax ([1]; male, CD-1, mouse, plasma, ip, 20 mg/kg, i.p. (20 mg/Kg per Table 3), Mean of 3 mice) was 0.183 h. The Cmax [1, 6] was 2860 ng/mL, the half-life [1, 6] was 6.46 h and the AUC(0-inf) ([1]; male, CD-1, mouse, plasma, ip, 20 mg/kg, i.p. (20 mg/Kg per Table 3), individual animal, read-out: AUC INF_obs) was 7000 ng·h/mL. The AUC(0-t) ([1]; male, CD-1, mouse, plasma, ip, 20 mg/kg, i.p. (20 mg/Kg per Table 3), individual animal, read-out: AUC last) was 6510 ng·h/mL, the bioavailability ([1]; male, CD-1, mouse, plasma, oral, p.o. 20 mg/Kg vs i.v. 10 mg/Kg) was 7.99% and the “AUC INF_obs” value [1, 7] was 488 ng·h/mL. The “AUC last (oral exposure)” value [1, 7] was 463 ng·h/mL, the C max [1, 7] was 290 ng/mL and the “MRT INF_obs” value [1, 7] was 2.11 h. The T1/2 [1, 7] was 1.32 h, the T max [1, 7] was 0.250 h and the T max ([1]; p.o. (gavage 20 mg/Kg per Table 3), individual animal) was 0.250 h. For the same compound, the “AUC INF_obs” value [1, 8] was 700 ng·h/mL and 499 ng·h/mL and 263 ng·h/mL, the AUC last [1, 8] was 690 ng·h/mL and 458 ng·h/mL and 241 ng·h/mL and the C max [1, 8] was 493 ng/mL and 259 ng/mL and 118 ng/mL. For the same compound, the “MRT INF_obs” value [1, 8] was 1.37 h and 3.08 h and 1.88 h, the T1/2 [1, 8] was 0.619 h and 2.15 h and 1.18 h and the “CC50 relative to the detection dose” value (Huh-7 cells) was “more than 1000 times”. For the same compound, the inhibition at 0.1 µM (HCoV-229E pseudovirus) was ~90%, the inhibition at 0.1 µM (SARS-CoV pseudovirus) was ~90% and the inhibition at 0.1 µM (MERS-CoV pseudovirus) was ~90%. For the same compound, the “body weight change versus control group” value [2] was “no difference of the body weight”, the “Inhibition of HCoV-OC43 infection and CPE” value (HCoV-OC43 live virus; 1 μM, HCT-8 cells) was “effectively block the virus infection” and the IC50 (HCoV-OC43 live virus; Betacoronavirus 1, OC43, HCT-8, read-out: IC50 against HCoV-OC43 live virus infection) was 86 nM. For the same compound, the “protective effect on target cells (CPE) at different concentrations” value (HCoV-OC43 live virus; HCT-8 cells, HCoV-OC43) was “obviously dose-dependent”.
